The source of these data is US20160046618A1, “Cyclopropyl Fused Thiazin-2-Amine Compounds as Beta-Secretase Inhibitors and Methods of Use” (AMGEN INC., priority 2014, published 2016).

Like-named read-outs stand apart in the source and are kept apart here.

As usually defined, the IC50 is the concentration needed to halve the response being measured.

For test [1], the system named is Aβ40 in conditioned medium of cells stably expressing Amyloid Precursor Protein (APP). The test is described as follows: In vitro BACE-1 cell-based assay (Aβ40 sandwich ELISA). The following applies: read-out: IC50 IP (μM) BACE1 cell. The essentials: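 Read-out: time-resolved fluorescence (Streptavidin-Europium) of Aβ40 captured by pAb40 and detected with biotinylated 6E10 from supernatants of APP-stable cells. Cells were exposed to compound for 24 h, 10-point dose response, top dose 100 μM or 10 μM, 0.1% DMSO. IC50 fitted to percent of control.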
A general note: ELISA stands for enzyme-linked immunosorbent assay.

In the next test the target is Recombinant Cat D (Homo sapiens (Human), UniProt P07339). In words: In vitro enzymatic Cathepsin D (Cat D) FRET assay. The format is biochemical. The following applies: read-out: IC50 IP (μM) CatD. The essentials:
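Cleavage of a 20 nM fluorophore/quencher peptide by CHO-expressed recombinant Cat D proceeded for one hour at pH 3.5 (0.05 M citrate, 5 mM CHAPS, 10% DMSO final). Tris addition neutralized the pH to end the reaction. Fluorescence was then measured (ex 500 nm/em 580 nm).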

The target in the next test is human recombinant BACE1 (Homo sapiens (Human), UniProt P56817). In words: In vitro enzymatic BACE1 FRET assay. The following applies: read-out: IC50 IP (μM) BACE1 enzyme. The format is biochemical. The essentials:
(§1)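 Tris addition raises the pH to neutral to stop the reaction before fluorescence is measured at 590 nm emission with 488 nm excitation.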

In another test the target is human recombinant BACE2 (Homo sapiens (Human), UniProt Q9Y5Z0). In words: In vitro enzymatic BACE2 FRET assay. The format is biochemical. The following applies: read-out: IC50 IP (μM) BACE2 enzyme. A digest of the protocol: as §1
Chain of human recombinant BACE2 (Q9Y5Z0 63-518): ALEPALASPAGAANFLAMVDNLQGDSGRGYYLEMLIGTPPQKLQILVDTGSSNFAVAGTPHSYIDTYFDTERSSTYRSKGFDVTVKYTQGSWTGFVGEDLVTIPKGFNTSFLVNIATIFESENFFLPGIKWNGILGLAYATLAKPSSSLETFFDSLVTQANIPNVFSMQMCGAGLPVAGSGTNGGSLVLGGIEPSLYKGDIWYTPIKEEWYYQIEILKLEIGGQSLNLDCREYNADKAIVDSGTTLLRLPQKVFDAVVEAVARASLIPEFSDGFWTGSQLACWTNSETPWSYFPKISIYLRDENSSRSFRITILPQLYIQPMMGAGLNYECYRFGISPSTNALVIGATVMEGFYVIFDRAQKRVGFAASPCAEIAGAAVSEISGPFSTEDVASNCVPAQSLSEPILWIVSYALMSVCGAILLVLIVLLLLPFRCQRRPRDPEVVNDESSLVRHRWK

Chain of human recombinant BACE1 (P56817 46-501): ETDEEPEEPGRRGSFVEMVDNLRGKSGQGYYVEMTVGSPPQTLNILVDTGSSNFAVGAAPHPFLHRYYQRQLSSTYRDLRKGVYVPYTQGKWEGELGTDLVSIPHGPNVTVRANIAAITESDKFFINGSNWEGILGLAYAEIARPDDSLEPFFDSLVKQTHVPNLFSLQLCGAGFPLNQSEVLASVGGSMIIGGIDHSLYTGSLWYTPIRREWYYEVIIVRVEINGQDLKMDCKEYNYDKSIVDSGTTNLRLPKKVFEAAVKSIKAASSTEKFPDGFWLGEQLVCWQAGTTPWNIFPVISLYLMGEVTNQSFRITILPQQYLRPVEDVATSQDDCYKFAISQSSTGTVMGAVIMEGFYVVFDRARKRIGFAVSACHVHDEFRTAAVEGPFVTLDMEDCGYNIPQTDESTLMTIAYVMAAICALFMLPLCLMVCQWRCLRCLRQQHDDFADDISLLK
Chain of Recombinant Cat D (P07339 65-412): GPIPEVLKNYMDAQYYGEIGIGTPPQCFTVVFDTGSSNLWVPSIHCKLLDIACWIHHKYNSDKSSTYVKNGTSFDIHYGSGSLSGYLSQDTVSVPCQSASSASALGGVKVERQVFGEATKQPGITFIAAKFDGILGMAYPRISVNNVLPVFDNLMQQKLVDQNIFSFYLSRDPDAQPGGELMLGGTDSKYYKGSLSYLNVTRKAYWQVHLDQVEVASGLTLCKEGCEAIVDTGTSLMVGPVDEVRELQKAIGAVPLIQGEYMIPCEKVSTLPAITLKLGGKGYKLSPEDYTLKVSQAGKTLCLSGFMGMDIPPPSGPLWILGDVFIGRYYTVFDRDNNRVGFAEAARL

With `CC(C)(C)NC(=O)[C@]12C[C@H]1[C@@](C)(c1cc(NC(=O)c3ccc(C#N)cn3)ccc1F)N=C(N)S2` [Example 986, (1S,5S,6S)-3-amino-N-tert-butyl-5-(5-(((5-cyano-2-pyridinyl)carbonyl)amino)-2-fluorophenyl)-5-methyl-2-thia-4-azabicyclo[4.1.0]hept-3-ene-1-carboxamide], the 50% inhibitory concentration (IC50) in test [1] came out at 0.00141 µM; at Recombinant Cat D it was 172 µM; at human recombinant BACE1 it was 0.00113 µM; at human recombinant BACE2, 0.00598 µM.
As for `COC[C@]12C[C@H]1[C@@](C)(c1cc(NC(=O)c3cnc(OC(C)C(F)(F)F)cn3)ccc1F)N=C(N)S2` (mixture of isomers) [Example 968, N-(3-((1S,5S,6S)-3-amino-1-(methoxymethyl)-5-methyl-2-thia-4-azabicyclo[4.1.0]hept-3-en-5-yl)-4-fluorophenyl)-5-((1,1,1-trifluoropropan-2-yl)oxy)pyrazine-2-carboxamide], the IC50 was 0.12 µM in test [1], > 400 µM on Recombinant Cat D, 0.129 µM on human recombinant BACE1 and 1.1 µM at human recombinant BACE2.
`NC1=N[C@](CF)(c2cc(NC(=O)c3ccc(Cl)cn3)ccc2F)[C@H]2C[C@@]2(CO)S1` [Example 42, N-(3-((1R,5S,6R)-3-amino-5-(fluoromethyl)-1-(hydroxymethyl)-2-thia-4-azabicyclo[4.1.0]hept-3-en-5-yl)-4-fluorophenyl)-5-chloro-2-pyridinecarboxamide]: the IC50 turned out to be 0.00576 µM in test [1] (BACE1 cell-based assay), 95.6 µM on Recombinant Cat D (Cathepsin D FRET enzyme assay), 0.00601 µM on human recombinant BACE1 (BACE1 FRET enzyme assay) and 0.0039 µM at human recombinant BACE2 (BACE2 FRET enzyme assay).
In the case of `C#CCOc1cnc(C(=O)Nc2cc(F)c(F)c([C@@]3(C)N=C(N)S[C@@]4(C(=O)N5CCOCC5)C[C@H]43)c2)cn1` [Example 1004, N-(3-((1S,5S,6S)-3-amino-5-methyl-1-(morpholine-4-carbonyl)-2-thia-4-azabicyclo[4.1.0]hept-3-en-5-yl)-4,5-difluorophenyl)-5-(prop-2-yn-1-yloxy)pyrazine-2-carboxamide], the IC50 in test [1] was 0.000324 µM; on Recombinant Cat D, 14.9 µM; on human recombinant BACE1, 0.0001 µM; on human recombinant BACE2, 0.00235 µM.
The like results for `C#CCOc1cnc(C(=O)Nc2ccc(F)c([C@@]3(C)N=C(N)S[C@]4(CO)[C@H]3C4(F)F)c2)cn1` [Example 749, N-(3-((1S,5S,6R)-3-amino-7,7-difluoro-1-(hydroxymethyl)-5-methyl-2-thia-4-azabicyclo[4.1.0]hept-3-en-5-yl)-4-fluorophenyl)-5-(2-propyn-1-yloxy)-2-pyrazinecarboxamide] were, in that order, 0.00121 µM, 101 µM, 0.000319 µM and 0.00979 µM.
For `N#CC[C@]12C[C@H]1[C@@](CF)(c1cc(NC(=O)c3ccc(Cl)cn3)ccc1F)N=C(N)S2` [Example 718, N-(3-((1R,5S,6S)-3-amino-1-(cyanomethyl)-5-(fluoromethyl)-2-thia-4-azabicyclo[4.1.0]hept-3-en-5-yl)-4-fluorophenyl)-5-chloro-2-pyridinecarboxamide], in that order: 0.04 µM, 921 µM, 0.00367 µM and 0.00131 µM.
On to `C#C[C@H](C)Oc1cnc(C(=O)Nc2ccc(F)c([C@@]3(C)N=C(N)S[C@@]4(C(F)F)C[C@@H]34)c2)c(C)n1` [Example 619, N-(3-((1S,5S,6S)-3-amino-1-(difluoromethyl)-5-methyl-2-thia-4-azabicyclo[4.1.0]hept-3-en-5-yl)-4-fluorophenyl)-3-methyl-5-(((1S)-1-methyl-2-propyn-1-yl)oxy)-2-pyrazinecarboxamide], for which the IC50 was determined as 0.0352 µM in test [1], 655 µM on Recombinant Cat D, 0.00439 µM on human recombinant BACE1 and 0.175 µM on human recombinant BACE2.
With `COc1cnc2c(Nc3cc(F)c(F)c([C@@]4(C)N=C(N)S[C@@]5(CO)C[C@H]54)c3)nccc2n1` [Example 93, ((1S,5S,6S)-3-Amino-5-(2,3-difluoro-5-((2-methoxypyrido[3,4-b]pyrazin-5-yl)amino)phenyl)-5-methyl-2-thia-4-azabicyclo[4.1.0]hept-3-en-1-yl)methanol], the IC50 turned out to be 0.0108 µM in test [1] (BACE1 cell-based assay), 1380 µM on Recombinant Cat D (Cathepsin D FRET enzyme assay), 0.01 µM at human recombinant BACE1 (BACE1 FRET enzyme assay) and 0.0342 µM on human recombinant BACE2 (BACE2 FRET enzyme assay).
For the compound `C#C[C@H](C)Oc1cnc(C(=O)Nc2cc(F)c(F)c([C@@]3(C)N=C(N)S[C@@]4(C(=O)NC)C[C@H]43)c2)cn1` [Example 967, (1S,5S,6S)-3-amino-5-(2,3-difluoro-5-(((5-(((1S)-1-methyl-2-propyn-1-yl)oxy)-2-pyrazinyl)carbonyl)amino)phenyl)-N,5-dimethyl-2-thia-4-azabicyclo[4.1.0]hept-3-ene-1-carboxamide], the IC50 in test [1] turned out to be 0.000539 µM; at Recombinant Cat D it was 269 µM; at human recombinant BACE1 it was 0.00011 µM; at human recombinant BACE2 it was 0.0149 µM.
For `Cc1cc(C#N)cnc1C(=O)Nc1ccc(F)c([C@@]2(CF)N=C(N)S[C@H]3C[C@H]32)c1` [Example 3, N-(3-((1S,5S,6S)-3-amino-5-(fluoromethyl)-2-thia-4-azabicyclo[4.1.0]hept-3-en-5-yl)-4-fluorophenyl)-5-cyano-3-methylpicolinamide], the IC50 in test [1] (BACE1 cell-based assay) was determined as 0.00522 µM; at Recombinant Cat D (Cathepsin D FRET enzyme assay), 437 µM; on human recombinant BACE1 (BACE1 FRET enzyme assay), 0.00838 µM; on human recombinant BACE2 (BACE2 FRET enzyme assay), 0.0108 µM.
As to `C[C@]1(c2cc(Nc3nccc4[nH]c(=O)cnc34)cnc2F)N=C(N)S[C@H]2C[C@H]21` [Example 638, 5-((5-((1S,5S,6S)-3-amino-5-methyl-2-thia-4-azabicyclo[4.1.0]hept-3-en-5-yl)-6-fluoropyridin-3-yl)amino)pyrido[3,4-b]pyrazin-2(1H)-one], the IC50 is 0.0517 µM in test [1], > 400 µM on Recombinant Cat D, 0.0625 µM at human recombinant BACE1 and 0.0314 µM on human recombinant BACE2.
The like results for `C[C@]1(c2cc(Nc3nccc4nc(OCc5ncco5)cnc34)ccc2F)N=C(N)S[C@@]2(C(=O)NC3CC3)C[C@H]21` [Example 796, (1S,5S,6S)-3-amino-N-cyclopropyl-5-(2-fluoro-5-((2-(1,3-oxazol-2-ylmethoxy)pyrido[3,4-b]pyrazin-5-yl)amino)phenyl)-5-methyl-2-thia-4-azabicyclo[4.1.0]hept-3-ene-1-carboxamide] were, in that order, 0.00354 µM, 543 µM, 0.000859 µM and 0.0628 µM.
Turning to `NC1=N[C@](CF)(c2cc(NC(=O)c3ccc(Cl)cn3)cc(F)c2F)[C@@H]2C[C@]2(CF)S1` [Example 59, N-(3-((1S,5S,6S)-3-amino-1,5-bis(fluoromethyl)-2-thia-4-azabicyclo[4.1.0]hept-3-en-5-yl)-4,5-difluorophenyl)-5-chloro-2-pyridinecarboxamide], the IC50 in test [1] (BACE1 cell-based assay) was 0.0229 µM; on Recombinant Cat D (Cathepsin D FRET enzyme assay), > 400 µM; at human recombinant BACE1 (BACE1 FRET enzyme assay), 0.00114 µM; at human recombinant BACE2 (BACE2 FRET enzyme assay) it was < 0.00203 µM.
For the compound `COC[C@]12C[C@H]1[C@@](C)(c1cc(NC(=O)c3ncc(OCc4ncco4)nc3C)ccc1F)N=C(N)S2` [Example 835, N-(3-((1S,5S,6S)-3-amino-1-(methoxymethyl)-5-methyl-2-thia-4-azabicyclo[4.1.0]hept-3-en-5-yl)-4-fluorophenyl)-3-methyl-5-(1,3-oxazol-2-ylmethoxy)-2-pyrazinecarboxamide], the IC50 in test [1] is 0.00392 µM; on Recombinant Cat D, > 400 µM; on human recombinant BACE1 it was 0.00305 µM; at human recombinant BACE2 it was 0.0249 µM.
For `COC[C@]12C[C@H]1[C@@](C)(c1cc(Nc3nccc4cc(OCc5nc(Br)cs5)cnc34)cc(F)c1F)N=C(N)S2` [Example 736, N-(3-((1S,5S,6S)-3-amino-1-(methoxymethyl)-5-methyl-2-thia-4-azabicyclo[4.1.0]hept-3-en-5-yl)-4,5-difluorophenyl)-3-((4-bromo-1,3-thiazol-2-yl)methoxy)-1,7-naphthyridin-8-amine], in that order: 1.07 µM, 151 µM, 0.0317 µM and 0.765 µM.
For `COC[C@]12C[C@H]1[C@@](C)(c1cc(NC(=O)c3ncc(OCC(F)(F)F)nc3C)ccc1F)N=C(N)S2` [Example 620, N-(3-((1S,5S,6S)-3-amino-1-(methoxymethyl)-5-methyl-2-thia-4-azabicyclo[4.1.0]hept-3-en-5-yl)-4-fluorophenyl)-3-methyl-5-(2,2,2-trifluoroethoxy)-2-pyrazinecarboxamide], in that order: 0.0437 µM, > 400 µM, 0.00832 µM and 0.245 µM.
For `C[C@]1(c2cc(NC(=O)c3ccc(Cl)cn3)cc(CO)c2F)N=C(N)S[C@@]2(CO)C[C@H]21` [Example 858, N-(3-((1S,5S,6S)-3-amino-1-(hydroxymethyl)-5-methyl-2-thia-4-azabicyclo[4.1.0]hept-3-en-5-yl)-4-fluoro-5-(hydroxymethyl)phenyl)-5-chloropicolinamide], in that order: 0.000487 µM, > 400 µM, 0.00085 µM and < 0.00203 µM.
